Data set [1] is described as follows: First anodic oxidation potential by differential pulse voltammetry (DPV). The note with it: DPV, first anodic peak, 0.25 mM standard in 0.1 M Britton-Robinson buffer pH 6.0 in 80% methanol, glassy carbon vs Ag/AgCl, 100 mV/s. It counts as physicochemical. The procedure: A potentiostat/galvanostat G 750 (Gamry Instruments, Warminster, USA) was used for voltametric experiments. A conventional three-electrode system: a 3 mm diameter glassy carbon working electrode (BAS MF-2012), an Ag/AgCl electrode as a reference electrode, and a platinum as counter electrode, was used in the study. Differential pulse voltametric experiments were performed with phenolic acids and flavonoids prepared in a 1:1 (v/v) mixture of 500 µM standard solution and […] Britton-Robinson (B-R) buffer (pH 6.0 in 80% methanol), which also served as a supporting electrolyte. The voltametric experiments were performed at room temperature using an electrochemical cell (volume 200 µL), to which the analyzed standard solution, mixed previously with the buffer solution, was introduced. The differential pulse voltammograms were acquired in the range of −100 to 1300 mV at a scanning rate of 100 mV/s. Before use, the surface of the glassy carbon electrode was carefully polished with 0.05 µm alumina paste, ultrasonically rinsed in deionized water, and then washed with methanol. This procedure was repeated after each cycle. For test purposes, the first anodic oxidation potential was recorded (mV).

The subject of another data set is ACE. The note with it: read-out: IC50 (ACE inhibitory activity); cited from earlier work.
In data set [2] the target is T1, Angiotensin-converting enzymes (ACE) from porcine kidneys (EC 3.4.15.1) (Sus scrofa, UniProt F1RRW5).
T1 construct: Angiotensin-converting enzymes (ACE) from porcine kidneys (EC 3.4.15.1) were purchased from Sigma-Aldrich; purchased Sigma-Aldrich (St. Louis, MO, USA); host or cells: porcine kidneys (tissue-derived enzyme)
T1 sequence (F1RRW5 34-1309): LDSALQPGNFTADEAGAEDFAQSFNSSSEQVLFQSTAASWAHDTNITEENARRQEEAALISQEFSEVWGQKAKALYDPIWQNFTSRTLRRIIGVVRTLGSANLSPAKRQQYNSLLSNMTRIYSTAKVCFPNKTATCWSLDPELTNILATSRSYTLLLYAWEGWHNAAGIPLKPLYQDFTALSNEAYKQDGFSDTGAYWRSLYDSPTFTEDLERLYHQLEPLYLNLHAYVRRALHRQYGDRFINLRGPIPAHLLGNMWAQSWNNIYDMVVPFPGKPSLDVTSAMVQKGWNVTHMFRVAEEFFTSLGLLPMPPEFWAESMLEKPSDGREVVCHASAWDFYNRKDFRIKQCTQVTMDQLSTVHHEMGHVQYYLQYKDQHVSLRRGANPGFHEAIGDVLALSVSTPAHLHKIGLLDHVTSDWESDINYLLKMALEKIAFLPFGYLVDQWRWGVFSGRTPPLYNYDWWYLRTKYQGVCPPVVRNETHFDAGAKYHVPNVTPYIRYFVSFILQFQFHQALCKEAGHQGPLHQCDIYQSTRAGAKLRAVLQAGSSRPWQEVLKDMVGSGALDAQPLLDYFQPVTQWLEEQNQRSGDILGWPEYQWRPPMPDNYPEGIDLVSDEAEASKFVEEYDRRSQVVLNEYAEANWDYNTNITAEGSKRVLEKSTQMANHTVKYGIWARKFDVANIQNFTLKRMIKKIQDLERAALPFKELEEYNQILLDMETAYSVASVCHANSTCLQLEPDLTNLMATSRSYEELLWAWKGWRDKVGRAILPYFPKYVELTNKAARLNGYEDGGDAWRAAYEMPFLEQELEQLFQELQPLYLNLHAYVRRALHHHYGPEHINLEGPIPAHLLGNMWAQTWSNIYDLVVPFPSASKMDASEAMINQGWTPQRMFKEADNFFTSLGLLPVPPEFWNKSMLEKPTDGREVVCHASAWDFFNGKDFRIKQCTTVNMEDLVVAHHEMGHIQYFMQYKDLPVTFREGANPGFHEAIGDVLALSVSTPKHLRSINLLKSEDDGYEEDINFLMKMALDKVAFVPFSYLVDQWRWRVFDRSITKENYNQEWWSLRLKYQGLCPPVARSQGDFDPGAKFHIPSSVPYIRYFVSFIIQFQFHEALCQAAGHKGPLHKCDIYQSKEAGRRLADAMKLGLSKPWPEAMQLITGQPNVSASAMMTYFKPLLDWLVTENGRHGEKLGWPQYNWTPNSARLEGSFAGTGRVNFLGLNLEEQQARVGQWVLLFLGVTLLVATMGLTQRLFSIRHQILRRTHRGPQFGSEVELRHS
The experiment in a line: biochemical. The procedure: Angiotensin-converting enzymes (ACE) from porcine kidneys (EC 3.4.15.1) were purchased from Sigma-Aldrich (St. Louis, MO, USA). A three-tris-base buffer was as follows: buffer A: 300 mM Tris-base buffer (pH 8.3) with 2 mM ZnCl2; buffer B: 150 mM Tris-base buffer (pH 8,3); and buffer C: 150 mM Tris-base buffer (pH 8.3) with […] NaCl. The substrate o-aminobenzoylglycyl-p-nitorphenylalanylproline (Abz-Gly-Phe(NO2)-Pro) was obtained from BACHEM (Bubendorf, Switzerland). Standards of phenolic acids, flavonoids, glucosides, and low-molecular-weight phenolic metabolites were obtained from Sigma-Aldrich (St. Louis, MO, USA) and Extrasynthese (Genay, France). Water was purified using the Mili-Q system (Milipore, Bedford, MA, USA).
Stock solutions at 1 mM of selected phenolic acids, flavonoids, their O-glucosides, and low-molecular-weight phenolic metabolites were prepared in 80% methanol. The concentration was confirmed by a UV measurement according to Franke et al.. A wide range of concentrations of each compound was prepared by serial dilutions in deionized water to determine the IC50 value. […] The ACE inhibitory activity was obtained from three repetitions (n = 3) for each concentration.
Angiotensin-converting enzyme (ACE) activity inhibitory assay was performed according to the method of Sentandreu and Toldra. The procedure was based on the hydrolysis of the internally quenched substrate o-aminobenzoylglycyl-p-nitorphenylalanylproline (Abz-Gly-Phe(NO2)-Pro) by the reaction of ACE. The fluorescence generated by the liberation of the product (the o-aminobenzoylglycine group) was read in a microplate multiscan fluorometer. The production of fluorescence was inhibited by the presence of functional compounds with an ACE inhibitory effect. The fluorescence was measured immediately after mixing (0 min) and then after 30 min of reaction at an excitation of 365 nm and an emission of 405 nm. To calculate the % of inhibition of ACE, the following equation was used:Relative ACE activity% = 100 − (ΔRFUsample × 100/ΔRFUnegative control), where ΔRFU = RFU at time 30 – RFU at time 0.

Data set [3] deals with formation of advanced glycation end products. Set-up: method as in PMID 27709826. As to conditions: cited from earlier work.
The mark [4] stands for this setting: porcine kidney ACE, substrate Abz-Gly-Phe(NO2)-Pro, fluorescence after 30 min, mean ± SD, read-out: IC50 Value (ACE inhibitory activity).

Molecules are shown by their SMILES. Where two headings read alike, the source gives them in different places. Marks after values point to notes of the source that are not given here.

Consider `O=C(O)/C=C/c1ccc(O)c(O)c1` [Caffeic acid], for which the “Anodic Peak Potential Epa” value was 397 ± 8 ^e mV in data set [1] and 397 mV in data set [1] (listed as caffeic acid). Further, the IC50 in the data set with ACE was 8.97 ± 0.08 mM; in data set [2] (setting [4]), 9.11 mM; in data set [2] (values of this study restated in mM in the discussion, read-out: IC50 (ACE inhibition)), 9.11 ± 0.06 mM.

With `O=C(O)Cc1ccc(O)c(O)c1` [3,4-DHPAA, 3,4-dihydroxyphenylacetic acid], the “Anodic Peak Potential Epa” value in data set [1] was 432 ± 6 ^g mV. Further, the “inhibitory activity against the formation of advanced glycation end products” value in data set [3] is reported as “strong inhibitory activity”. In addition, the IC50 in data set [2] (setting [4]) turned out to be 0.6728 ± 0.00493 mM.

Values taken from PMC12298876, “Angiotensin-Converting Enzyme Inhibitory Activity of Selected Phenolic Acids, Flavonoids, Their O-Glucosides, and Low-Molecular-Weight Phenolic Metabolites in Relation to Their Oxidation Potentials” (Metabolites, 2025).
